Results from patent publication US20240209053A1 (Protagonist Therapeutics, Inc., priority 2021, published 2024).
Numbered stars: 1 amine (or outer) side, 2 acyl side, 3 side chain; on linkers, the order of the positions; unused ones are H or OH. Bridge positions count the residues as written; N and C are the ends. Square brackets hold non-standard residues; d marks the D form. Side chains are listed from the residue outwards. Peptide text beside a SMILES is read from it. * marks the point of attachment. Dip = N[C@H](C(=O)O)C(c1ccccc1)c1ccccc1; Hag = O=C([C@H](CCC=[*:3])N[*:1])[*:2]; Palmitoyl = CCCCCCCCCCCCCCCC(=O)*; NMeF = CN[C@@H](Cc1ccccc1)C(=O)O; β3hF = N[C@H](CC(=O)O)Cc1ccccc1; Isovaleryl = CC(C)CC(=O)*; Ahx = NCCCCCC(=O)O; GABA = NCCCC(=O)O

Legend:
[1] = target: T1, human ferroportin (SLC40A1) (Homo sapiens, UniProt Q9NP59); test: FPN activity assay: internalization/degradation of ferroportin-GFP in stably transfected HEK293 cells (decrease in GFP fluorescence); format: cell-based; settings: compound incubated at least 18 hours
T1 sequence (Q9NP59 1-571): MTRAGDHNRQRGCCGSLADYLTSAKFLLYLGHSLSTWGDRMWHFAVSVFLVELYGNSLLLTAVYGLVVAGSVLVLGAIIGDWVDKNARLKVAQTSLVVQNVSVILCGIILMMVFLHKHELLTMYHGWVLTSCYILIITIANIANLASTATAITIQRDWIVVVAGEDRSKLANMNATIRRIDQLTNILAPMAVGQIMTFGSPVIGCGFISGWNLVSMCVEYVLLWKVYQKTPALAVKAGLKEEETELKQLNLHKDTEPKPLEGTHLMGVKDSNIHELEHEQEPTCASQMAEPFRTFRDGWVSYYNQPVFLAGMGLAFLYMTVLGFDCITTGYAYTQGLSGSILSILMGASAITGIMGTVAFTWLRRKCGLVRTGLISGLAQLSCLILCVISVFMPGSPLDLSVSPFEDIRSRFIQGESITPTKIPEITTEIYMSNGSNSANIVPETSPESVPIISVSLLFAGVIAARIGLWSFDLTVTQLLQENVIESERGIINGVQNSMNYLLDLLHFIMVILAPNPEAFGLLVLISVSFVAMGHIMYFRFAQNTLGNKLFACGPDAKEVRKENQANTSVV
Method: Peptide analogues were tested in vitro for induction of internalization of the human ferroportin protein. Following internalization, the ferroporin protein is degraded. The assay used (FPN activity assay) measures a decrease in fluorescence of the receptor. The cDNA encoding the human ferroportin (SLC40A1) was cloned from a cDNA clone from Origene (NM_014585). The DNA encoding the ferroportin was amplified by PCR using primers also encoding terminal restriction sites for subcloning, but without the termination codon. The ferroportin receptor was subcloned into a mammalian GFP expression vector containing a neomycin (G418) resistance marker in such that the reading frame of the ferroportin was fused in frame with the GFP protein. The fidelity of the DNA encoding the protein was confirmed by DNA sequencing. HEK293 cells were used for transfection of the ferroportin-GFP receptor expression plasmid. The cells were grown according to standard protocol in growth medium and transfected with the plasmids using Lipofectamine (manufacturer's protocol, Invitrogen). The cells stably expressing ferroportin-GFP were selected using G418 in the growth medium (in that only cells that have taken up and incorporated the cDNA expression plasmid survive) and sorted several times on a Cytomation MoFloTM cell sorter to obtain the GFP-positive cells (488 nm/530 nm). The cells were propagated and frozen in aliquots. […] Compound was added to desired final concentration for at least 18 hours in the incubator. […] Compound was added to desired final concentration for at least 18 hours but no more than 24 hours in the incubator. […] The “RI” in RI-Mini-Hepcidin refers to Retro Inverse. A retro inverse peptide is a peptide with a reversed sequence in all D amino acids. An example is that […] becomes […]. The EC50 of these reference compounds for ferroportin internalization/degradation was determined according to the FPN activity assay described above. These peptides served as control standards.

ferroportin = target: T2, ferroportin (Homo sapiens, UniProt Q9NP59); test: T47D cell-based ferroportin internalization assay in presence of 0.5% mouse serum albumin (MSA); settings: T47D cells
T2 sequence (Q9NP59 1-571): T1 sequence (Q9NP59 1-571)
Method: The potency of the peptides in causing ferroportin internalization was evaluated in a T47D cell-based assay. […] In this internalization assay, the potency of the test peptides was evaluated in presence of serum albumin which is the main protein component in the blood. T47D cells were maintained in RPMI media (containing required amount of fetal bovine serum) and regularly sub-cultured. In preparation for the assay, the cells were seeded in 96-well plates at a density of 80-100 k cells per well in 100 ul volume and allowed to rest overnight. On the next day, test peptides were first prepared in dilution series (10-point series, starting concentration of ˜5 μM, typically 3-4×fold dilution steps), all with 0.5% mouse serum albumin (MSA purified from mouse serum; Sigma, A3139). The test peptide dilution series were allowed to incubate at room temperature for 30 min. Then the media was aspirated from the 96-well cell plate and test peptide dilution series were added. After 1 hr incubation, the media with test peptides was aspirated out and AF647-conjugated detection peptide was added at fixed concentration of 200 nM. The AF647-conjugated detection peptide was previously verified to bind to ferroportin and cause its internalization. The cells were washed again after a 2 hr incubation in preparation for flow cytometry analysis. The Median Fluorescence Intensity (MFI) of the AF647-positive population was measured (after removing dead cells and non-singlets from the analysis). The MFI values were used to generate a dose-response curve and obtain IC50 potencies for the test peptides. The IC50 potencies were calculated by using 4-parameter non-linear fitting function in Graphpad Prism (Table 6A).

Structure (SMILES) | IC50 [1] [nM] | IC50 (ferroportin) [nM]
CCCCCCCCCCCCCCCC(=O)NCCCCCC(=O)NCCCC[C@@H]1NC(=O)[C@H](C)NC(=O)[C@@H]2CCCN2C(=O)[C@H](C(c2ccccc2)c2ccccc2)NC(=O)[C@H](Cc2c[nH]cn2)NC(=O)[C@H]([C@@H](C)O)NC(=O)[C@@H](NC(=O)CC(C)C)CCC=CCC[C@@H](C(=O)N[C@H](CC(=O)N[C@H](CCCCN)C(N)=O)Cc2ccccc2)NC1=O (single isomer, unassigned) [Compd 37] | 100 to 500 | 100 to 500
CCCCCCCCCCCCCCCC(=O)NCCCCCC(=O)NCCCC[C@H](NC(=O)C[C@H](Cc1ccccc1)NC(=O)[C@@H]1CCC=CCC[C@H](NC(=O)[C@@H]2CCCN2C(=O)[C@@H](NC(=O)[C@H](Cc2c[nH]cn2)NC(=O)[C@@H](NC(=O)[C@H](CCC(=O)O)NC(=O)CC(C)C)[C@@H](C)O)C(c2ccccc2)c2ccccc2)C(=O)N[C@@H]([C@@H](C)CC)C(=O)N1)C(=O)N[C@H](CCCCN)C(N)=O [Compd 6] (Isovaleryl-ETH[Dip]P[Hag]I[Hag][β3hF]K([Ahx-Palmitoyl])[dK]-NH2; staple 6-8) | 10 to 100 | 1 to 10
CCCCCCCCCCCCCCCC(=O)NCCCCCC(=O)NCCCC[C@H](NC(=O)C[C@H](Cc1ccccc1)NC(=O)[C@@H](CCCCN)NC(=O)[C@@H]1CCC=CCC[C@H](NC(=O)[C@@H]2CCCN2C(=O)[C@@H](NC(=O)[C@H](Cc2c[nH]cn2)NC(=O)[C@@H](NC(=O)[C@H](CCC(=O)O)NC(=O)CC(C)C)[C@@H](C)O)C(c2ccccc2)c2ccccc2)C(=O)N1)C(=O)N[C@H](CCCCN)C(N)=O [Compd 15] | 10 to 100 | 1 to 10
CCCCCCCCCCCCCCCC(=O)NCCCCCC(=O)NCCCC[C@H](NC(=O)C[C@H](Cc1ccccc1)NC(=O)[C@@H]1CCC=CCC[C@H](NC(=O)CC(C)C)C(=O)N[C@@H]([C@@H](C)O)C(=O)N[C@@H](Cc2c[nH]cn2)C(=O)N[C@@H](C(c2ccccc2)c2ccccc2)C(=O)N2CCC[C@H]2C(=O)N[C@@H](C)C(=O)N[C@@H]([C@@H](C)CC)C(=O)N1)C(N)=O [Compd 17] | 10 to 100 | 1 to 10
CCCCCCCCCCCCCCCC(=O)NCCCCCC(=O)NCCCC[C@H](NC(=O)[C@@H]1CCC=CCC[C@H](NC(=O)CC(C)C)C(=O)N[C@@H]([C@@H](C)O)C(=O)N[C@@H](Cc2c[nH]cn2)C(=O)N[C@@H](C(c2ccccc2)c2ccccc2)C(=O)N2CCC[C@H]2C(=O)N[C@@H](C)C(=O)N[C@@H]([C@@H](C)CC)C(=O)N1)C(N)=O [Compd 18] (Isovaleryl-[Hag]TH[Dip]PAI[Hag]K([Ahx-Palmitoyl])-NH2; staple 1-8) | 100 to 500 | 10 to 100
CCCCCCCCCCCCCCCC(=O)NCCCCCC(=O)NCCCC[C@H](NC(=O)C[C@H](Cc1ccccc1)NC(=O)[C@@H]1CC=CCC[C@H](NC(=O)CC(C)C)C(=O)N[C@@H]([C@@H](C)O)C(=O)N[C@@H](Cc2c[nH]cn2)C(=O)N[C@@H](C(c2ccccc2)c2ccccc2)C(=O)N2CCC[C@H]2C(=O)N[C@@H](C)C(=O)N[C@@H]([C@@H](C)CC)C(=O)N1)C(=O)N[C@@H](CCCNC(=N)N)C(N)=O [Compd 22] | 1 to 10 | 10 to 100
CCCCCCCCCCCCCCCC(=O)NCCCCCC(=O)NCCCC[C@H](NC(=O)C[C@H](Cc1ccccc1)NC(=O)[C@@H]1CCC=CC[C@H](NC(=O)CC(C)C)C(=O)N[C@@H]([C@@H](C)O)C(=O)N[C@@H](Cc2c[nH]cn2)C(=O)N[C@@H](C(c2ccccc2)c2ccccc2)C(=O)N2CCC[C@H]2C(=O)N[C@@H](C)C(=O)N[C@@H]([C@@H](C)CC)C(=O)N1)C(=O)N[C@@H](CCCNC(=N)N)C(N)=O [Compd 23] | 10 to 100 | 1 to 10
CCCCCCCCCCCCCCCC(=O)NCCCCCC(=O)NCCCC[C@@H]1NC(=O)[C@@H]2CCCN2C(=O)[C@H](C(c2ccccc2)c2ccccc2)NC(=O)[C@H](Cc2c[nH]cn2)NC(=O)[C@H]([C@@H](C)O)NC(=O)[C@@H](NC(=O)CC(C)C)CCC=CCC[C@@H](C(=O)N[C@H](CC(N)=O)Cc2ccccc2)NC(=O)[C@H]([C@@H](C)CC)NC1=O [Compd 24] (Isovaleryl-[Hag]TH[Dip]PK([Ahx-Palmitoyl])I[Hag][β3hF]-NH2; staple 1-8) | 10 to 100 | 10 to 100
CCCCCCCCCCCCCCCC(=O)NCCCCCC(=O)NCCCC[C@@H]1NC(=O)[C@H](C)NC(=O)[C@@H]2CCCN2C(=O)[C@H](C(c2ccccc2)c2ccccc2)NC(=O)[C@H](Cc2c[nH]cn2)NC(=O)[C@H]([C@@H](C)O)NC(=O)[C@@H](NC(=O)CC(C)C)CCC=CCC[C@@H](C(=O)N[C@H](CC(N)=O)Cc2ccccc2)NC1=O [Compd 25] (Isovaleryl-[Hag]TH[Dip]PAK([Ahx-Palmitoyl])[Hag][β3hF]-NH2; staple 1-8) | 100 to 500 | 100 to 500
CCCCCCCCCCCCCCCC(=O)NCCCCCC(=O)NCCCC[C@H](NC(=O)C[C@H](Cc1ccccc1)NC(=O)[C@@H]1CCC=CCC[C@H](NC(=O)CC(C)C)C(=O)N[C@@H]([C@@H](C)O)C(=O)N(C)[C@@H](Cc2c[nH]cn2)C(=O)N[C@@H](C(c2ccccc2)c2ccccc2)C(=O)N2CCC[C@H]2C(=O)N[C@@H](C)C(=O)N[C@@H]([C@@H](C)CC)C(=O)N1)C(=O)N[C@H](CCCCN)C(N)=O [Compd 50] |  | > 500
CCCCCCCCCCCCCCCC(=O)NCCCCCC(=O)NCCCC[C@H](NC(=O)C[C@H](Cc1ccccc1)NC(=O)[C@@H]1CCC=CCC[C@H](NC(=O)CC(C)C)C(=O)N[C@@H]([C@@H](C)O)C(=O)N[C@@H](Cc2c[nH]cn2)C(=O)N(C)[C@@H](Cc2ccccc2)C(=O)N2CCC[C@H]2C(=O)N[C@@H](C)C(=O)N[C@@H]([C@@H](C)CC)C(=O)N1)C(=O)N[C@H](CCCCN)C(N)=O [Compd 51] (Isovaleryl-[Hag]TH[NMeF]PAI[Hag][β3hF]K([Ahx-Palmitoyl])[dK]-NH2; staple 1-8) |  | > 500
CCCCCCCCCCCCCCCC(=O)NCCCCCC(=O)NCCCC[C@H](NC(=O)C[C@H](Cc1ccccc1)NC(=O)[C@@H]1CCC=CCC[C@H](NC(=O)CC(C)C)C(=O)N[C@@H]([C@@H](C)O)C(=O)N[C@@H](Cc2c[nH]cn2)C(=O)N[C@@H](CC(C)(C)C)C(=O)N2CCC[C@H]2C(=O)N[C@@H](C)C(=O)N[C@@H]([C@@H](C)CC)C(=O)N1)C(=O)N[C@H](CCCCN)C(N)=O [Compd 60] | 10 to 100 | 
CCCCCCCCCCCCCCCC(=O)NCCCCCC(=O)NCCCC[C@H](NC(=O)C[C@H](Cc1ccccc1)NC(=O)[C@@H]1CCC=CCC[C@H](NC(=O)CC(C)C)C(=O)N[C@@H]([C@@H](C)O)C(=O)N[C@@H](Cc2c[nH]cn2)C(=O)N[C@@H](C(c2ccccc2)c2ccccc2)C(=O)N2CCC[C@H]2C(=O)NCCCC(=O)N1)C(=O)N[C@H](CCCCN)C(N)=O [Compd 66] (Isovaleryl-[Hag]TH[Dip]P[GABA][Hag][β3hF]K([Ahx-Palmitoyl])[dK]-NH2; staple 1-7) | 10 to 100 | 
CCCCCCCCCCCCCCCC(=O)NCCCCCC(=O)NCCCC[C@@H]1NC(=O)C[C@H](Cc2ccccc2)NC(=O)[C@@H](CCCCN)NC(=O)[C@H]([C@@H](C)CC)NC(=O)[C@H](C)NC(=O)[C@@H]2CCCN2C(=O)[C@H](C(c2ccccc2)c2ccccc2)NC(=O)[C@H](Cc2c[nH]cn2)NC(=O)[C@H]([C@@H](C)O)NC(=O)[C@@H](NC(=O)CC(C)C)CCC=CCC[C@@H](C(N)=O)NC1=O [Compd 84] (Isovaleryl-[Hag]TH[Dip]PAI[dK][β3hF]K([Ahx-Palmitoyl])[Hag]-NH2; staple 1-11) | 100 to 500 | 
